Assay results published in PubChem BioAssay AID248 (DTP/NCI, 2004).
Values joined by “and” are separate entries in the source; they are usually repeats but may differ in a detail not shown here. Identical values can stand only once. Toxic doses and inconclusive results are not listed. No stated cut-off is given here; in the data, active means T/C of 150% or more; inactive means T/C below 125%.

System: L1210 leukemia ip in BDF1 mice, survival T/C
Experiment: NCI In Vivo Anticancer Drug Screen. Data for tumor model L1210 Leukemia (intraperitoneal) in B6D2F1 (BDF1) mice
Details: endpoint: mean survival time, higher = longer survival
Procedure, shortened: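 Each compound was tested against a transplantable tumor grown in mice. The endpoint was survival, with treated animals benchmarked against vehicle controls as a simple ratio.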

[1] = dose: 100.0 mg/kg/injection, schedule: Q04DX003 (ip), vehicle: saline with Tween-80
[2] = dose: 200.0 mg/kg/injection, schedule: Q04DX003 (ip), vehicle: saline with Tween-80
[3] = dose: 400.0 mg/kg/injection, schedule: Q04DX003 (ip), vehicle: saline with Tween-80
[4] = dose: 100.0 mg/kg/injection, schedule: Q01DX009 (ip), vehicle: saline with Tween-80
[5] = dose: 100.0 mg/kg/injection, schedule: Q04DX002 (ip), vehicle: saline with Tween-80
[6] = dose: 200.0 mg/kg/injection, schedule: Q01DX009 (ip), vehicle: saline with Tween-80
[7] = dose: 200.0 mg/kg/injection, schedule: Q04DX002 (ip), vehicle: saline with Tween-80
[8] = dose: 400.0 mg/kg/injection, schedule: Q01DX009 (ip), vehicle: saline with Tween-80
[9] = dose: 400.0 mg/kg/injection, schedule: Q04DX002 (ip), vehicle: saline with Tween-80
[10] = dose: 12.5 mg/kg/injection, schedule: Q01DX009 (ip), vehicle: Klucel (hydroxypropylcellulose) (HPC)
[11] = dose: 25.0 mg/kg/injection, schedule: Q01DX009 (ip), vehicle: Klucel (hydroxypropylcellulose) (HPC)
[12] = dose: 50.0 mg/kg/injection, schedule: Q01DX009 (ip), vehicle: Klucel (hydroxypropylcellulose) (HPC)
[13] = dose: 200.0 mg/kg/injection, schedule: Q01DX001 (ip), vehicle: saline with Tween-80
[14] = dose: 400.0 mg/kg/injection, schedule: Q01DX001 (ip), vehicle: saline with Tween-80
[15] = dose: 100.0 mg/kg/injection, schedule: Q04DX002 (ip), vehicle: Klucel (hydroxypropylcellulose) (HPC)
[16] = dose: 200.0 mg/kg/injection, schedule: Q04DX002 (ip), vehicle: Klucel (hydroxypropylcellulose) (HPC)
[17] = dose: 50.0 mg/kg/injection, schedule: Q01DX001 (ip), vehicle: saline
[18] = dose: 100.0 mg/kg/injection, schedule: Q01DX001 (ip), vehicle: saline
[19] = dose: 200.0 mg/kg/injection, schedule: Q01DX001 (ip), vehicle: saline
[20] = dose: 400.0 mg/kg/injection, schedule: Q01DX001 (ip), vehicle: saline
[21] = dose: 100.0 mg/kg/injection, schedule: Q01DX009 (ip), vehicle: saline
[22] = dose: 100.0 mg/kg/injection, schedule: Q04DX003 (ip), vehicle: saline
[23] = dose: 100.0 mg/kg/injection, schedule: Q01DX001 (ip), vehicle: carboxymethylcellulose (CMC)
[24] = dose: 200.0 mg/kg/injection, schedule: Q01DX001 (ip), vehicle: carboxymethylcellulose (CMC)
[25] = dose: 400.0 mg/kg/injection, schedule: Q01DX001 (ip), vehicle: carboxymethylcellulose (CMC)
[26] = dose: 100.0 mg/kg/injection, schedule: Q04DX002 (ip), vehicle: saline
[27] = dose: 200.0 mg/kg/injection, schedule: Q04DX002 (ip), vehicle: saline
[28] = dose: 200.0 mg/kg/injection, schedule: Q04DX003 (ip), vehicle: saline
[29] = dose: 400.0 mg/kg/injection, schedule: Q04DX003 (ip), vehicle: saline
[30] = dose: 100.0 mg/kg/injection, schedule: Q01DX001 (ip), vehicle: Klucel (hydroxypropylcellulose) (HPC)
[31] = dose: 100.0 mg/kg/injection, schedule: Q01DX009 (ip), vehicle: Klucel (hydroxypropylcellulose) (HPC)
[32] = dose: 200.0 mg/kg/injection, schedule: Q01DX009 (ip), vehicle: Klucel (hydroxypropylcellulose) (HPC)
[33] = dose: 100.0 mg/kg/injection, schedule: Q04DX003 (ip), vehicle: Klucel (hydroxypropylcellulose) (HPC)
[34] = dose: 200.0 mg/kg/injection, schedule: Q04DX003 (ip), vehicle: Klucel (hydroxypropylcellulose) (HPC)

Measured: T/C

CC(=O)OCC1OC(C(N)=O)C(OC(C)=O)C1OC(C)=O (centres undefined)
inactive: dose: 100.0 mg/kg/injection, schedule: Q01DX001 (ip), vehicle: other 102 % of control | [1] 93 % of control | dose: 200.0 mg/kg/injection, schedule: Q01DX001 (ip), vehicle: other 98 % of control | [2] 104 % of control | dose: 400.0 mg/kg/injection, schedule: Q01DX001 (ip), vehicle: other 98 % of control | [3] 98 % of control

Cc1ccc(C(=O)/C=C/c2ccc(Cl)c(Cl)c2)c(C)c1
inactive: [4] 92 % of control | [5] 98 % of control | [6] 95 % of control | [7] 91 % of control | [8] 109 % of control | [9] 91 % of control

Cc1cc(NC(=O)Nc2cc(Cl)ccc2C)no1
inactive: [10] 95 % of control | [11] 106 % of control | [12] 98 % of control

O=C(c1ccccn1)c1nnn2ccccc12
inactive: [5] 91 % of control | [7] 87 % of control

CC(=O)O/C=C1\CC2C3CC=C4CC(OC(C)=O)CCC4(C)C3CCC2(C)C1=O (centres undefined)
inactive: [13] 90 % of control | [14] 90 % of control

CCCCCCCS(=O)(=O)c1nc2ccccc2[nH]1
inactive: [15] 95 % of control | [16] 101 % of control | dose: 400.0 mg/kg/injection, schedule: Q04DX002 (ip), vehicle: Klucel (hydroxypropylcellulose) (HPC) 104 % of control

Cc1cc(C)c(NC(=S)NC(=O)/C=C/c2ccccc2)c(C)c1
inactive: dose: 100.0 mg/kg/injection, schedule: Q01DX001 (ip), vehicle: saline with Tween-80 100 % of control | [4] 97 % of control and 89 % of control | [5] 101 % of control | [1] 92 % of control | [13] 92 % of control | [6] 101 % of control and 107 % of control | [7] 104 % of control | [2] 92 % of control | [14] 97 % of control | [8] 92 % of control and 96 % of control | [9] 87 % of control | [3] 91 % of control

N#CCC(=O)c1ccccc1
inactive: [10] 113 % of control | dose: 18.75 mg/kg/injection, schedule: Q04DX003 (ip), vehicle: gum acacia 106 % of control | [11] 102 % of control | dose: 37.5 mg/kg/injection, schedule: Q04DX003 (ip), vehicle: gum acacia 108 % of control | [12] 104 % of control

CCOC(=O)C1CN(c2ccccc2)C(=O)C1=O (centres undefined)
inactive: [17] 104 % of control | [18] 98 % of control | [19] 96 % of control | [20] 98 % of control

O=C(Nc1cccc(Br)c1)c1cc(Cl)cc(Cl)c1Br
inactive: dose: 87.5 mg/kg/injection, schedule: Q04DX003 (ip), vehicle: saline with Tween-80 105 % of control | dose: 175.0 mg/kg/injection, schedule: Q04DX003 (ip), vehicle: saline with Tween-80 97 % of control | dose: 350.0 mg/kg/injection, schedule: Q04DX003 (ip), vehicle: saline with Tween-80 97 % of control

CC(c1ccccc1)n1cnc2c(N(CCO)CCO)ncnc21 (centres undefined)
inactive: [18] 117 % of control | [19] 104 % of control | [20] 101 % of control

CC(N)C(=O)NC1C(CO)OC(n2cnc3c(N)ncnc32)C1O (centres undefined)
inactive: [18] 105 % of control | [19] 101 % of control | [20] 101 % of control

CN(C)C1(Cc2ccccc2)c2ccccc2-c2ccccc21
inactive: dose: 50.0 mg/kg/injection, schedule: Q04DX002 (ip), vehicle: Klucel (hydroxypropylcellulose) (HPC) 103 % of control | [15] 106 % of control | [16] 95 % of control

CC(N)Cc1cn(C)c2ccccc12 (centres undefined)
inactive: dose: 6.25 mg/kg/injection, schedule: Q01DX009 (ip), vehicle: saline 96 % of control | dose: 12.5 mg/kg/injection, schedule: Q01DX009 (ip), vehicle: saline 105 % of control | dose: 25.0 mg/kg/injection, schedule: Q01DX009 (ip), vehicle: saline 103 % of control | dose: 25.0 mg/kg/injection, schedule: Q04DX003 (ip), vehicle: saline 101 % of control | dose: 50.0 mg/kg/injection, schedule: Q01DX009 (ip), vehicle: saline 105 % of control | dose: 50.0 mg/kg/injection, schedule: Q04DX003 (ip), vehicle: saline 95 % of control | [21] 97 % of control | [22] 104 % of control

C/C(Cc1c[nH]c2ccccc12)=N/NC(N)=S
inactive: [17] 100 % of control | [18] 100 % of control

ClCCN(CCCl)c1ccc(-c2csc(Cc3ccccc3)n2)cc1
inactive: [23] 93 % of control | [24] 92 % of control | [25] 93 % of control

CCCCC(=O)N/N=C\c1cc([N+](=O)[O-])ccc1O
inactive: [23] 91 % of control | [24] 98 % of control | [25] 87 % of control

Cn1[nH]c(=O)c2ncccc2c1=O
inactive: [15] 97 % of control | [26] 94 % of control | [16] 97 % of control | [27] 94 % of control | dose: 400.0 mg/kg/injection, schedule: Q04DX002 (ip), vehicle: saline 97 % of control

Nc1ccc(C(=O)Nc2ccc(Nc3ccncc3)cc2)c([N+](=O)[O-])c1
inactive: [21] 97 % of control | [22] 100 % of control | dose: 200.0 mg/kg/injection, schedule: Q01DX009 (ip), vehicle: saline 104 % of control | [28] 96 % of control | dose: 400.0 mg/kg/injection, schedule: Q01DX009 (ip), vehicle: saline 106 % of control | [29] 100 % of control

C=CC1CC2C=CC1C2 (centres undefined)
inactive: [22] 100 % of control | [28] 103 % of control | [29] 106 % of control

CSc1nccc(NN=C2CCCCC2)n1
inactive: [30] 98 % of control | [31] 96 % of control | dose: 200.0 mg/kg/injection, schedule: Q01DX001 (ip), vehicle: Klucel (hydroxypropylcellulose) (HPC) 94 % of control | [32] 98 % of control | dose: 400.0 mg/kg/injection, schedule: Q01DX001 (ip), vehicle: Klucel (hydroxypropylcellulose) (HPC) 91 % of control

O=S1(=O)CC(c2ccc(F)cc2)Nc2ccccc21 (centres undefined)
inactive: [33] 102 % of control | [34] 102 % of control | dose: 400.0 mg/kg/injection, schedule: Q04DX003 (ip), vehicle: Klucel (hydroxypropylcellulose) (HPC) 97 % of control

Cc1ccc(NC(=O)C2C3C=CC(C3)C2C(=O)Nc2ccc(C)cc2)cc1 (centres undefined)
inactive: [1] 96 % of control | [2] 96 % of control | [3] 91 % of control

Cc1cccc(C)c1-n1nnnc1N
inactive: [12] 105 % of control | [31] 119 % of control | [32] 101 % of control

CCOC(=O)c1ccc(N2C(=O)c3cccc4cccc(c34)C2=O)c([N+](=O)[O-])c1
inactive: [1] 97 % of control | [2] 93 % of control | [3] 95 % of control

Cn1nc(C(N)=O)c(C#N)c1N
inactive: dose: 50.0 mg/kg/injection, schedule: Q04DX002 (ip), vehicle: saline 103 % of control | [26] 92 % of control | [27] 95 % of control

c1ccc(C(c2ccccc2)C2CCCCC2)cc1
inactive: [33] 87 % of control | [34] 90 % of control

Nc1cc2ccc3ccccc3c2c2ccccc12
inactive: [30] 110 % of control | dose: 130.0 mg/kg/injection, schedule: Q01DX001 (ip), vehicle: Klucel (hydroxypropylcellulose) (HPC) 94 % of control
